Source: ChEMBL document CHEMBL3813694, “Combined dual effect of modulation of human neutrophils' oxidative burst and inhibition of colon cancer cells proliferation by hydroxycinnamic acid derivatives” (Bioorg Med Chem, 2016)
Activity calls are given as the source filed them. The rule behind the calls is not given here.

Key:
[1] = Cytotoxicity against human neutrophils at 200 uM after 1 hr by trypan blue exclusion assay; assay type: cell-based; conditions: neutrophil
Neutrophil [2] = assay: Inhibition of phorbol myristate acetate-induced human neutrophils oxidative burst assessed as reduction in luminol oxidation preincubated for 5 mins followed by PMA addition measured after 15 mins by chemiluminescence assay; assay type: functional, cell-based
C2BBe1 [3] = assay: Cytotoxicity against human C2BBe1 cells assessed as reduction in cell proliferation after 24 hrs by sulforhodamine B assay; assay type: functional, cell-based; conditions: C2BBe1, 24 h
C2BBe1 [4] = assay: Cytotoxicity against human C2BBe1 cells assessed as reduction in cell proliferation after 48 hrs by sulforhodamine B assay; assay type: functional, cell-based; conditions: C2BBe1, 48 h
C2BBe1 [5] = assay: Cytotoxicity against human C2BBe1 cells assessed as reduction in cell proliferation after 72 hrs by sulforhodamine B assay; assay type: functional, cell-based; conditions: C2BBe1, 72 h
C2BBe1 [6] = assay: Cytotoxicity against human C2BBe1 cells assessed as reduction in cell proliferation after 96 hrs by sulforhodamine B assay; assay type: functional, cell-based; conditions: C2BBe1, 96 h
WiDr [7] = assay: Cytotoxicity against human WiDr cells assessed as reduction in cell proliferation after 24 hrs by sulforhodamine B assay; assay type: functional, cell-based
WiDr [8] = assay: Cytotoxicity against human WiDr cells assessed as reduction in cell proliferation after 48 hrs by sulforhodamine B assay; assay type: functional, cell-based
WiDr [9] = assay: Cytotoxicity against human WiDr cells assessed as reduction in cell proliferation after 72 hrs by sulforhodamine B assay; assay type: functional, cell-based
WiDr [10] = assay: Cytotoxicity against human WiDr cells assessed as reduction in cell proliferation after 96 hrs by sulforhodamine B assay; assay type: functional, cell-based
C2BBe1 [11] = assay: Cytotoxicity against human C2BBe1 cells assessed as reduction in cell proliferation up to 200 uM by sulforhodamine B assay; assay type: functional, cell-based; conditions: TDE = time-dependent effect
Neutrophil [12] = assay: Inhibition of phorbol myristate acetate-induced human neutrophils oxidative burst assessed as reduction in luminol oxidation up to 200 uM preincubated for 5 mins followed by PMA addition measured after 15 mins by chemiluminescence assay; assay type: functional
Neutrophil [13] = assay: Inhibition of phorbol myristate acetate-induced superoxide radical generation in human neutrophils at 100 uM preincubated for 5 mins followed by PMA addition by lucigenin chemiluminescence assay; assay type: functional
C2BBe1 [14] = assay: Cell cycle arrest in human C2BBe1 cells assessed as accumulation at G2/M phase at 50 uM after 48 hrs by propidium iodide/RNase staining based flow cytometry relative to control; assay type: functional
WiDr [15] = assay: Cell cycle arrest in human WiDr cells assessed as accumulation at S phase at 50 uM after 48 hrs by propidium iodide/RNase staining based flow cytometry relative to control; assay type: functional
WiDr [16] = assay: Cell cycle arrest in human WiDr cells assessed as accumulation at pre-G1 phase at 50 uM after 48 hrs by propidium iodide/RNase staining based flow cytometry; assay type: functional
WiDr [17] = assay: Cytotoxicity against human WiDr cells assessed as reduction in cell viability at 35 uM after 48 hrs by annexin V/propidium iodide dual staining based flow cytometry relative to control; assay type: functional
WiDr [18] = assay: Cytotoxicity against human WiDr cells assessed as reduction in cell viability at 50 uM after 48 hrs by annexin V/propidium iodide dual staining based flow cytometry relative to control; assay type: functional
C2BBe1 [19] = assay: Cytotoxicity against human C2BBe1 cells assessed as reduction in cell viability at 22 uM after 48 hrs by annexin V/propidium iodide dual staining based flow cytometry relative to control; assay type: functional
C2BBe1 [20] = assay: Cytotoxicity against human C2BBe1 cells assessed as reduction in cell viability at 50 uM after 48 hrs by annexin V/propidium iodide dual staining based flow cytometry relative to control; assay type: functional
C2BBe1 [21] = assay: Induction of apoptosis in human C2BBe1 cells assessed as early apoptotic cells at 50 uM after 48 hrs by annexin V/propidium iodide dual staining based flow cytometry; assay type: functional, cell-based
WiDr [22] = assay: Induction of apoptosis in human WiDr cells assessed as decrease in mitochondrial membrane potential at 50 uM after 48 hrs by JC-1 staining based flow cytometry relative to control; assay type: functional
WiDr [23] = assay: Induction of superoxide anion radical production in human WiDr cells after 48 hrs by dihydroethidium probe based flow cytometry; assay type: functional, cell-based
C2BBe1 [24] = assay: Induction of superoxide anion radical production in human C2BBe1 cells after 48 hrs by dihydroethidium probe based flow cytometry; assay type: functional, cell-based
WiDr [25] = assay: Induction of superoxide anion radical production in human WiDr cells at 50 uM after 48 hrs by dihydroethidium probe based flow cytometry relative to control; assay type: functional
WiDr [26] = assay: Induction of hydrogen peroxide production in human WiDr cells at 35 to 50 uM after 48 hrs by DCFH2-DA probe based flow cytometry; assay type: functional, cell-based
C2BBe1 [27] = assay: Induction of glutathione production in human C2BBe1 cells at 50 uM after 48 hrs by mercury orange dye based flow cytometry relative to control; assay type: functional
WiDr [28] = assay: Induction of apoptosis in human WiDr cells assessed as early apoptotic cells at 35 to 50 uM after 48 hrs by annexin V/propidium iodide dual staining based flow cytometry; assay type: functional, cell-based

COc1cc(/C=C/C(=O)O)ccc1O [FERULATE]
Activity [1]: 98%
IC50 (Neutrophil [2]): 200 µM
IC50 (C2BBe1 [3]): > 200 µM
IC50 (C2BBe1 [4]): > 200 µM
IC50 (C2BBe1 [5]): > 200 µM
IC50 (C2BBe1 [6]): > 200 µM
IC50 (WiDr [7]): > 200 µM
IC50 (WiDr [8]): > 200 µM
IC50 (WiDr [9]): > 200 µM
IC50 (WiDr [10]): > 200 µM

O=C(O)/C=C/c1cc(O)c(O)c(O)c1
Activity [1]: 98%
IC50 (Neutrophil [2]): 19 µM
IC50 (C2BBe1 [3]): 131 µM
IC50 (C2BBe1 [4]): 87.9 µM
IC50 (C2BBe1 [5]): 58.9 µM
IC50 (C2BBe1 [6]): 39.1 µM
IC50 (WiDr [7]): > 200 µM
IC50 (WiDr [8]): > 200 µM
IC50 (WiDr [9]): 114 µM
IC50 (WiDr [10]): 136 µM
Activity (C2BBe1 [11]): tde

CCCCCCNC(=O)/C=C/c1cc(O)c(O)c(O)c1
Activity [1]: 98%
IC50 (Neutrophil [2]): 36 µM
IC50 (C2BBe1 [3]): 115 µM
IC50 (C2BBe1 [4]): 115 µM
IC50 (C2BBe1 [5]): 99.8 µM
IC50 (C2BBe1 [6]): 50.9 µM
IC50 (WiDr [7]): 71.4 µM
IC50 (WiDr [8]): 82.4 µM
IC50 (WiDr [9]): 37.7 µM
IC50 (WiDr [10]): 31.7 µM
Activity (C2BBe1 [11]): tde

CCCCCCNC(=O)/C=C/c1ccc(O)c(OC)c1 [FERULOYLHEXYLAMIDE]
Activity [1]: 98%
IC50 (Neutrophil [2]): 14 µM
IC50 (C2BBe1 [3]): 132 µM
IC50 (C2BBe1 [4]): 123 µM
IC50 (C2BBe1 [5]): 89.5 µM
IC50 (C2BBe1 [6]): 60.6 µM
IC50 (WiDr [7]): 84.9 µM
IC50 (WiDr [8]): 91 µM
IC50 (WiDr [9]): 77.4 µM
IC50 (WiDr [10]): 83.3 µM

O=C(O)/C=C/c1ccc(O)c(O)c1 [CAFFEIC ACID]
Activity [1]: 98%
inhibition (INH) (Neutrophil [12]): 44%
inhibition at 100 µM (Neutrophil [13]): 84%

CCCCCCNC(=O)/C=C/c1ccc(O)c(O)c1 [CAFFEOYLHEXYLAMIDE]
Activity [1]: 98%
IC50 (Neutrophil [2]): 6.6 µM
IC50 (C2BBe1 [3]): 37.3 µM
IC50 (C2BBe1 [4]): 22 µM
IC50 (C2BBe1 [5]): 23.4 µM
IC50 (C2BBe1 [6]): 22.6 µM
IC50 (WiDr [7]): 56.1 µM
IC50 (WiDr [8]): 34.6 µM
IC50 (WiDr [9]): 35.5 µM
IC50 (WiDr [10]): 30.8 µM
Activity (C2BBe1 [14]): 8.8%
Activity (WiDr [15]): 9.3%
Activity (WiDr [16]): Active
Activity (WiDr [17]): 32.8%
Activity (WiDr [18]): 43.9%
Activity (C2BBe1 [19]): 11.4%
Activity (C2BBe1 [20]): 14.7%
Activity (C2BBe1 [21]): Active
fold change (FC) (WiDr [22]): 1.27
Activity (WiDr [23]): Dose-dependent effect
Activity (C2BBe1 [24]): Dose-dependent effect
fold change (FC) (WiDr [25]): 2.63
Activity (WiDr [26]): Active
fold change (FC) (C2BBe1 [27]): 1.47
Activity (WiDr [28]): Active
